In patent EP4789666A1, “RNA M6A REGULATOR COMPOSITION, PREPARATION METHOD THEREFOR, AND USE THEREOF” (SHANGHAI MERNA THERAPEUTICS CO. LTD, priority 2023, dated 2025):

Legend:
[1] = tested on: chemotherapeutic drug-induced mouse model with hand-foot syndrome; test: Chemotherapeutic drug-induced mouse model with hand-foot syndrome; format: in vivo, ICR mice; conditions: for degree of swelling of the hind limb toes of the mice: continuous oral administration of modeling drug for 14 days; for epidermal layer and stratum corneum in the skin tissues of the hind limb toes: modeling drug oral for 14 days versus normal control group, pathological staining; for skin of the hind limb toes of the mice (appearance): modeling for 14 days (capecitabine 200 mg/kg, docetaxel 25 mg/kg oral), versus normal control group
From the text: After adaptive feeding for 7 days, SPF-grade ICR mice (male, 5-6 weeks old, with a body weight of approximately 35 g) were randomly divided into groups, including a blank control group (6 mice), a capecitabine modeling group (6 mice), a docetaxel modeling group (6 mice), a capecitabine + compound of formula (I) group (6 mice), a docetaxel + compound of formula (I) group (6 mice), a capecitabine + nicotinamide group (6 mice), and a docetaxel + nicotinamide group (6 mice). The groups were respectively administered corresponding modeling drugs by oral gavage (capecitabine at 200 mg/kg and docetaxel at 25 mg/kg) once daily; and the blank control group was administered an equivalent volume of normal saline. After administration with the chemotherapeutic drugs for 2 weeks, the ointments containing the compound of formula (I) (at a compound content of 3%) used in Example 10 were respectively applied topically in the groups, or nicotinamide was orally administered (100 mg/kg) once daily continuously for 16 days.
(§1) Measurement of the degree of swelling of toes: The degree of swelling of hind limb toes of the mice was measured using a toe swelling tester (KW-7C, Nanjing Calvin Biotechnology Co., Ltd.) before administration with the modeling drugs, after administration with the modeling drugs for 2 weeks, and before sacrifice, respectively. Before measurement, ankle joints of hind feet of the mice were marked at same positions before administration, after administration for 2 weeks, and before sacrifice. During measurement, water was properly located at the same level as the marked positions, and numerical values were recorded after becoming stable.
(§2) Pathological staining of skin tissues: Skin tissue samples were selected from hind limb toes of the mice and placed in 4% paraformaldehyde for fixation at room temperature for 4 hours. Then, the tissues were taken out and rinsed with running water for several hours. The samples were subjected to dehydration treatment with 70%, 80%, and 90% ethanol solutions, followed by treatment with a mixed solution of equal amounts of absolute alcohol and xylene for 15 minutes, and then permeabilized twice with a xylene solution for 15 minutes each time until the samples became transparent. The samples were placed in a mixture of half xylene and half paraffin for soaking for 15 minutes, and then, paraffin I and paraffin II were added for wax penetration for one hour, respectively. After embedding with paraffin, the samples were sectioned, baked, dewaxed, and hydrated. Then, the hydrated sections were placed in a hematoxylin solution (ZSGB-BIO, article No. 23041001) for staining for 3 minutes, and a differentiation solution of hydrochloric acid in ethanol was added for differentiation for 15 seconds. After rinsing with water, a Scott bluing solution (Servicebio, article No. 20230801) was added for bluing for 15 seconds. After rinsing with running water, the sections were stained with an eosin solution (Solarbio, article No. 33535) for 3 minutes, rinsed with running water, dehydrated, permeabilized, sealed, and inspected under a microscope.
(§3) Immunohistochemical staining: After baking, dewaxing, and hydration, paraffin sections of skin tissues of hind limb toes of the mice were subjected to antigen retrieval using a 0.2 M citric acid buffer solution (containing 1.534 g of citric acid, 3.1 g of sodium citrate, and 100 mL of distilled water, pH 4.7). Endogenous […] was removed using 3% hydrogen peroxide (Shandong Annjet High-Tech Disinfection Technology Co., Ltd., article No. 20290902), and the sections were incubated at room temperature for 10 minutes and then fully rinsed with a PBS buffer solution (containing 8 g of NaCl, 0.2 g of KCl, 1.44 g of Na2HPO4, and 1 M HCl, pH 7.4). The sections were permeabilized with 0.5% Triton-X-100 (AmyJet Scientific, article No. A-CSH436-100 mL), respectively permeabilized with mouse anti-IL-1β and rabbit IL-8 for 10 minutes, and not permeabilized with rabbit anti-IL-6. […]

[2] = tested on: rat models with hand-foot skin reaction; test: Rat models with hand-foot skin reaction, topical ointment (incidence rate, histology, immunohistochemistry); format: in vivo, SD rats; conditions: for Incidence rate, left paw / Incidence rate, right paw: modeling drug alone by gavage once daily 30 days (sorafenib 100, erlotinib 70, afatinib 50, osimertinib 60 mg/kg), no compound in ointment; for successful modeling rates for the hand-foot skin reaction: once daily by gavage at 100, 70, 50 and 60 mg/kg (sorafenib, erlotinib, afatinib, osimertinib), SD rats
Procedure: After adaptive feeding for one week, SD rats (with a body weight of approximately 200 g) were randomly divided into groups with balanced body weight, with 12 rats in each group. Modeling drugs (including sorafenib, erlotinib, afatinib, and osimertinib) were respectively dissolved in a solution containing 5% of DMSO, 45% of PEG400, and 50% of H2O, and the modeling drugs were diluted to required concentrations and then administered once daily by gavage at doses shown in Table 3. After administration by gavage for 1 hour, 0.05 g of ointments containing different mass proportions of test compounds were evenly applied to left paws of the rats, a blank matrix ointment was applied to right paws of the rats to serve as a self-control, and no ointment was applied to the rats in a blank control group. After drug application, four limbs were continuously immobilized for 2 hours, then wiped with clean water to remove the residual drugs, removed from immobilization, and restored to free movement. The modeling drugs, the blank matrix ointment, and the ointments containing the test compounds were all administered once daily. After continuous administration for 30 days, the rats were euthanized, and paw plantar skin tissues were collected, fixed in 10% neutral formalin, […]. The ointments for the test compounds were prepared by mixing the compounds, white beeswax, white petrolatum, and light liquid paraffin in specific ratios (weight ratios of 3 ointments were respectively 1:18:58:23, 3:18:57:22, and 10:20:40:30). The blank matrix ointment was prepared by mixing white beeswax, white petrolatum, and light liquid paraffin in a specific ratio (weight ratio of 18:60:22).
Tissue staining: After dewaxing and rehydration, the paw plantar skin tissue sections of the above rats were stained in a hematoxylin solution for several minutes, cleaned, and placed in 1% acid alcohol for soaking until the sections faded to light blue-red. After cleaning with running water for 5 minutes, the sections were stained with eosin for 2-3 minutes, cleaned to remove excess dyes, dehydrated, then permeabilized by adding xylene for several minutes, and sealed and fixed with a neutral resin. The stratum corneum was observed under an optical microscope, and the thickness of the epidermal stratum corneum was measured using Dmetrix software.
Immunohistochemical staining: After dewaxing and hydration, the paw plantar skin tissue sections of the above rats were incubated with 3% H2O2 at room temperature for 30 minutes and blocked with 10% goat serum for 30 minutes after antigen retrieval. A KRT1 antibody (Abcam, ab93652) and a Loricrin antibody (Abcam, ab183646) were added dropwise, the sections were incubated overnight at 4°C, and an HRP secondary antibody (ZSGB-BIO, PV-6001) and a DAB kit (ZSG-BIO, ZLI9017) were added for color development. The sections were re-stained with hematoxylin, cleaned, and sealed and fixed with a neutral resin, and the expression amounts of KRT1 and Loricrin were observed under an optical microscope.
An incidence rate calculation method involves a proportion of animals in each group meeting the above criteria for determining successful modeling, that is, incidence rate = (number of successfully modeled rats/total number of rats in the group)*100%. […]

[3] = tested on: kinase inhibitor-induced mouse model with hand-foot skin reaction; test: Kinase inhibitor-induced mouse model with hand-foot skin reaction; format: in vivo, ICR mice; conditions: for degree of swelling of the hind limb toes of the mice: continuous oral administration of modeling drug for 14 days; for epidermal layer and stratum corneum in the skin tissues of the hind limb toes: modeling drug oral for 14 days versus normal control group, pathological staining; for skin of the hind limb toes of the mice (appearance): modeling for 14 days (sorafenib 100 mg/kg, osimertinib 10 mg/kg oral), versus normal control group; for cytokine IL-1β in the skin tissues of the hind limb toes: immunohistochemistry, p<0.05
From the text: After adaptive feeding for 7 days, SPF-grade ICR mice (male, 5-6 weeks old, with a body weight of approximately 35 g) were randomly divided into groups, including a blank control group (6 mice), a sorafenib modeling group (6 mice), an osimertinib modeling group (6 mice), a sorafenib + compound of formula (I) group (6 mice), an osimertinib + compound of formula (I) group (6 mice), a sorafenib + nicotinamide group (6 mice), and an osimertinib + nicotinamide group (6 mice). The groups were respectively administered corresponding modeling drugs by oral gavage (sorafenib at 100 mg/kg and osimertinib at 10 mg/kg) once daily; and the blank control group was administered an equivalent volume of normal saline. After administration with the chemotherapeutic drugs for 2 weeks, the ointments containing the compound of formula (I) (at a compound content of 3%) used in Example 10 were respectively applied topically in the groups, or nicotinamide was orally administered (100 mg/kg) once daily continuously for 16 days.
as §1, §2, §3

[4] = capecitabine and docetaxel models, 3% ointment topical or nicotinamide 100 mg/kg oral, once daily 16 days
[5] = sorafenib and osimertinib models, 3% ointment topical or nicotinamide 100 mg/kg oral, once daily 16 days
[6] = immunohistochemical staining, successfully modeled rats
[7] = successfully modeled rats versus normal rats, FIG. 8

SMILES: CC(=O)O[C@@]12CO[C@@H]1C[C@H](O)[C@@]1(C)C(=O)[C@H](O)C3=C(C)[C@@H](OC(=O)[C@H](O)[C@@H](NC(=O)OC(C)(C)C)c4ccccc4)C[C@@](O)([C@@H](OC(=O)c4ccccc4)[C@H]21)C3(C)C [Docetaxel, docetaxel]
- degree of swelling of the hind limb toes of the mice [1]: swelling of the hind limb toes of the mice was caused
- cytokine IL-6 in the skin tissues of the hind limb toes ([1]; docetaxel oral for 14 days versus normal control group, immunohistochemistry, p<0.05): significantly increased
- epidermal layer and stratum corneum in the skin tissues of the hind limb toes [1]: significantly thickened
- skin of the hind limb toes of the mice (appearance) [1]: obvious erythema, rhagades, and blisters

SMILES: C=CC(=O)Nc1cc(Nc2nccc(-c3cn(C)c4ccccc34)n2)c(OC)cc1N(C)CCN(C)C [Osimertinib, osimertinib]
- KRT1 and Loricrin in tissues ([2]; rat, in vivo): significantly increased
- stratum corneum thickness of the paw plantar skin ([2]; rat, in vivo): significantly higher
- degree of swelling of the hind limb toes of the mice [3]: significant swelling
- epidermal layer and stratum corneum in the skin tissues of the hind limb toes [3]: significantly thickened
- skin of the hind limb toes of the mice (appearance) [3]: obvious erythema and rhagades
- cytokine IL-1β in the skin tissues of the hind limb toes ([3]; osimertinib oral for 14 days versus normal control group): significantly increased

SMILES: NC(=O)c1cccnc1 [Nicotinamide, nicotinamide]
- swelling of the toes caused by the modeling drugs [1, 4]: it was not observed that oral administration of the nicotinamide at 100 mg/kg significantly alleviated the swelling
- thickening of the epidermal layer and the stratum corneum in the skin tissues [1, 4]: mildly alleviated
- expression level of cytokine IL-8 in the skin tissues of the hind limb toes ([1]; capecitabine model, 3% ointment topical or nicotinamide 100 mg/kg oral): didn't have a significant impact
- expression level of cytokine IL-6 in the skin tissues of the hind limb toes ([1]; docetaxel model, 3% ointment topical or nicotinamide 100 mg/kg oral): didn't have a significant impact
- expression level of cytokine IL-1β in the skin tissues of the hind limb toes ([3]; osimertinib model, 3% ointment topical or nicotinamide 100 mg/kg oral): didn't have a significant impact
- swelling of the toes caused by the modeling drugs [3, 5]: it was not observed that oral administration of the nicotinamide at 100 mg/kg significantly alleviated the swelling
- thickening of the epidermal layer and the stratum corneum in the skin tissues [3, 5]: didn't significantly alleviate
- expression level of cytokine IL-1β in the skin tissues of the hind limb toes ([3]; sorafenib model, 3% ointment topical or nicotinamide 100 mg/kg oral): didn't have a significant impact

SMILES: CN(C)C/C=C/C(=O)Nc1cc2c(Nc3ccc(F)c(Cl)c3)ncnc2cc1O[C@H]1CCOC1 [Afatinib, afatinib, reference compound]
- KRT1 and Loricrin in tissues [2, 6]: significantly increased
- Incidence rate, left paw [2]: 8/12 (66.7%)
- Incidence rate, right paw [2]: 8/12 (66.7%)
- successful modeling rates for the hand-foot skin reaction [2]: 66.7%
- stratum corneum thickness of the paw plantar skin [2, 7]: significantly higher

SMILES: CCCCCOC(=O)Nc1nc(=O)n([C@@H]2O[C@H](C)[C@@H](O)[C@H]2O)cc1F [Capecitabine, capecitabine]
- cytokine IL-8 in the skin tissues of the hind limb toes ([1]; capecitabine oral for 14 days versus normal control group, immunohistochemistry, p<0.05): significantly increased
- degree of swelling of the hind limb toes of the mice [1]: swelling of the hind limb toes of the mice was caused
- epidermal layer and stratum corneum in the skin tissues of the hind limb toes [1]: significantly thickened
- skin of the hind limb toes of the mice (appearance) [1]: obvious erythema, rhagades, and blisters

SMILES: CNC(=O)c1cc(Oc2ccc(NC(=O)Nc3ccc(Cl)c(C(F)(F)F)c3)cc2)ccn1 [Sorafenib, sorafenib, reference compound]
- KRT1 and Loricrin in tissues [2, 6]: significantly increased
- Incidence rate, left paw [2]: 9/12 (75%)
- Incidence rate, right paw [2]: 9/12 (75%)
- successful modeling rates for the hand-foot skin reaction [2]: 75%
- stratum corneum thickness of the paw plantar skin [2, 7]: significantly higher
- degree of swelling of the hind limb toes of the mice [3]: significant swelling
- epidermal layer and stratum corneum in the skin tissues of the hind limb toes [3]: significantly thickened
- skin of the hind limb toes of the mice (appearance) [3]: obvious erythema and rhagades
- cytokine IL-1β in the skin tissues of the hind limb toes ([3]; sorafenib oral for 14 days versus normal control group): significantly increased

SMILES: C#Cc1cccc(Nc2ncnc3cc(OCCOC)c(OCCOC)cc23)c1 [Erlotinib, erlotinib, reference compound]
- KRT1 and Loricrin in tissues ([2]; rat, in vivo): significantly increased
- stratum corneum thickness of the paw plantar skin ([2]; rat, in vivo): significantly higher
